Where two headings read alike, the source gives them in different places.

Assay [1] has as its system spreading depression (SD) in hippocampal slice cultures. As to the kind of experiment: Spreading depression (SD) threshold / susceptibility in hippocampal slice cultures. It counts as cell-based, rat. From the text: FIGS. 2A-2E. […] (FIG. 2A) Experiments begin with determination of the current needed to maximize standard CA3 area field potential responses. Half-maximal intensity is then used to elicit CA3 area evoked field potentials from dentate gyrus bipolar electrical stimulation. This documents the normalcy of evoked synaptic responses between preparations. If a slice's field excitatory post synaptic potentials are not at least 3 mV, slices are discarded. Next, field potential trains (i) are noted to verify that preparations are healthy enough to follow 10 Hz stimulation (e.g., amplitudes of vertical deviations in fast potential records are similar) and the current needed to trigger SD (ii) is registered (Pusic and Kraig, 2010).
(FIG. 8a) Exemplary CA3 area evoked field potential. Experiments begin with establishment of the current intensity needed to evoke maximal field potential responses; stimuli of half-maximal intensity were then used to elicit subsequent field potentials. Only those cultures with CA3 pyramidal neuron post-synaptic responses of at least 3 mV were used for experiments. (FIG. 8b) CA3 response to dentate gyrus bipolar stimulation (10 pulses at 10 Hz, 500 μA) was used to elicit a spreading depression (SD), as shown in (FIG. 8c). (FIG. 8c) The spreading depression (SD) shown here was induced by the stimulation/response (arrow) shown in (FIG. 8b). […] Comparisons between groups made via Student's t-test.
The inventors induced SD trans-synaptically in rat HSC using electrical stimuli (100 μs pulses @ 10 Hz for 1 s) ranging from 1 to 10,000 nC in order to determine SD threshold in sham and experimental groups (Pusic et al., 2011). Results were based on n≥3-6/group. […] This insulin dose approximates the pharmacological levels seen in humans treated with nasal insulin.
Slice cultures were prepared and maintained as previously described (Mitchell et al., 2010a,). After 18 days in vitro (DIV), slice cultures were transferred to serum-free media that included additional calcium and magnesium. Cultures were screened at 21 DIV to ensure no pyramidal neuron death was present. Standard electrophysiological recordings were performed by placing a slice culture insert in a PDMI recording chamber with controlled temperature and pH (FIG. 1). The recording chamber was aerated with 5% CO2-balance air at 36° C. and media flowing at 1.2 mL/min or was held static around the slice culture insert. A recording electrode was placed at the CA3 pyramidal cell layer and a stimulating electrode was placed at the surface of the dentate gyrus. Recordings were initiated prior to placing the stimulating electrode on the culture to ensure no spreading depression was triggered as a result.
Studies began with determination of the current needed to maximize standard CA3 area field potential responses. This documented the normalcy of evoked synaptic responses between preparations. If a slice's field EPSPs were not at least 3-4 mV, it was discarded.
Next, trans-synaptically evoked SD was determined. Here, the inventors stimulated slices via the dentate gyrus with 100 μs pulses delivered at 10 Hz for 1 sec every 1-2 minutes at increasing μA current intensities until SD occurred.
Slice cultures are prepared, maintained, and induced to fire SD as previously described using trans-synaptic excitation of CA3, where SD is initiated (FIG. 4) (Kunkler et al., 2005; Pusic et al., 2011).

The subject of assay [2] is SD in neocortex and hippocampus of anesthetized rat. The experiment in a line: SD threshold in vivo (0.5 M KCl injection) after nasal administration. The note with it: acutely after nasal treatment (IGF-1 150 μg; insulin 20 μg); control 1-8 nL. As to the method: Images show experimental setups for nasal administration and testing. (FIG. 7A) Nasal injection setup showing heat lamp and thermo-regulator that maintains temperature at 37° C. plus nose cone used to deliver isoflurane anesthesia. (FIG. 7B) Operator is shown administering nasal IGF-1 solution, which is performed in a fume hood to adequately vent isoflurane from nose cone. (FIG. 7C) Image illustrates standard electrophysiology setup. Anesthetized animal is placed into a standard electrophysiology holder and anesthesia maintained by a nose cone delivering 3% isoflurane in oxygen. Arterial oxygen saturation is monitored with a pulse-oximeter. Animals are warmed to 37.5° C. with a heating plate. SD is induced by progressively injecting larger volumes of 0.5 M KCl from an 8 μm diameter microelectrode. SD is registered with a second microelectrode used for DC recordings placed more caudally. After SD is evoked by a given injection pulse, the stimulating electrode is withdrawn and a volume re-injected under mineral oil. The diameter of the resultant KCl injection sphere is then measured off line using a compound microscope and the injection volume calculated. For example, in the above whole animal experiments it took 1-8 nL of 0.5 M KCl to evoke SD in control brain regions while after acute IGF-1 this amount rose to 67-109 nL. A day after IGF-1 treatment the volume needed to evoked SD was 34-48 nL. IFN-γ treatment required 338 nL of 0.5 M KCl a day after treatment and IL-11 required 67-200 nL.
Rats (FIGS. 6 and 7) are anesthetized with inhalational isoflurane and kept warm. While anesthetized, animals are placed in a supine position and 50 μL of sterile drug (i.e., IFN-γ, IGF-1, or IL-11) solution [or sterile saline vehicle (sham control)] is administered nasally by delivering 5 μL alternating between the left and right naris every 2 min over 20 minutes. Animals are given nasal drug treatments daily at the same time for 7 days before subsequent experiments. Doses for all 3 agents begin with the effective doses noted in our work using slice cultures (1×), then include others (0.1× and 10×). The inventors base this strategy on the fact that the effective culture dose for IGF-1 (40 ng/mL) closely approximates the dose used in vivo (143 μg/kg).
This approach was applied to measurement of SD threshold (FIG. 10) after treatment (FIG. 7) with nasally administered IGF-1 (150 μg), IL-11 (1 μg), IFN-γ (50,000 units), and insulin (20 μg). […] Resistance against SD was always greater in hippocampus compared to neocortex (n=4, controls; n=3, acutely after IGF-1; n=6, one day after IGF-1; n=6, one day after IL-11; n=6, one day after IFN-γ; and n=3, acutely after insulin).
Nasal administration followed by SD threshold evaluation in vivo. Vehicle or human recombinant IGF-1 (150 μg) is administered intranasally. SD threshold is established by injection of nanoliter volumes of 0.5 M KCl into neocortex or hippocampus (−2.0 mm from Bregma and 1.5 mm lateral from midline at either 750 μm or 2,800 μm into brain, respectively) using a thin-walled glass pipette and Picospritzer. Once a threshold is established, it is confirmed two more times, with an exemplary record from a vehicle-sham animal shown below. […] The diameter of the injected sphere is then measured using a compound microscope and used to calculate the injected volume, then moles of potassium. […]

Assay [3] relates to oxidative stress (OS) in hippocampal slice cultures. As to the kind of experiment: Oxidative stress (OS) by CellROX fluorescence in hippocampal slice cultures (CA3). The note with it: menadione exposure, without or with acute IGF-1. It is filed as cell-based, rat. How it is done: FIGS. 4A-4F Oxidative stress (OS) from SD and its reduction by IGF-1. (FIG. 4A) Normal cytoarchitecture of a hippocampal slice culture showing pyramidal neuron areas of CA1, dentate gyrus (DG), and the imaging zone for the inventors' work here (dotted line), CA3. (FIG. 4B) OS was measured using CellROX, a fixable fluorescent marker from Invitrogen. […] (FIG. 4D) This reduction versus control SD was significant (p<0.02; n=4 & 5). (FIG. 4E) CellROX can be used to measure relative OS in specific brain cell types.
FIGS. 9a-9f IGF-1 decreased oxidative stress from spreading depression. (FIG. 9a) NeuN immunohistochemical labeling of a hippocampal slice culture, for cytoarchitectural reference and to show the CA3 area of interest (dotted line box) used for quantification of oxidative stress (OS) via CellROX™ fluorescence intensity. (FIGS. 9b-c) Representative CellROX™-labeled hippocampal slices exposed to SD (FIG. 9b) and to 3-day IGF-1 incubation followed by spreading depression (SD) (FIG. 9c). Dotted line boxes illustrate CA3 areas of interest used for relative OS quantifications. […] Again, seven day treatments consisted of exposing cultures to IGF-1 for 12 hours a day for seven days. Note: IGF-1 exposure was continued for the additional 24 hour CellROX™ incubation. Scale bars=400 μm (a) and 200 μm (b and c). Comparisons between groups were made via ANOVA plus Holm-Sidak post hoc testing.
(§1) FIGS. 11a-11g IGF-1 decreased CA3 oxidative stress (OS) and its related hyperexcitability. […] Relative evoked excitability was determined as a sum of responses seen (e.g., responses of “2” and a “3” yielded an overall excitability score of five). […] (FIGS. 11d-e) Exemplary images of control (FIG. 11d) slice culture OS compared to increased slice OS induced by exposure to menadione (FIG. 11e). Calibration bar, 200 Dotted boxes indicate CA3 areas of interest used for relative OS quantifications (f and g).
Oxidative stress from SD preferentially rises in astrocytes and microglia, with the latter effect mitigated by IGF-1 (FIG. 13). The inventors have recently shown that spreading depression (SD), the most likely cause of migraine aura and perhaps migraine (Lauritzen and Kraig, 2005), occurs with increased oxidative stress (OS) and that OS, in turn, increases SD susceptibility (Grinberg et al., 2012). Reactive oxygen and nitrogen species that cause OS have both autocrine and paracrine signaling capacities that can affect SD susceptibility by altering excitability (Kishida and Klann, 2007). Accordingly, the inventors looked for the cellular origin of OS from SD. Here the inventors used hippocampal slice cultures (HSC) to probe for cell-specific changes in OS from SD. SD was induced trans-synaptically in rat HSCs using bipolar electrical stimuli at the dentate gyrus (Pusic et al., 2011). Six SDs were induced every 7-9 min over an hr, followed by 24 hr incubation in CellROX™, a fixable fluorogenic probe for measuring OS (Grinberg et al., 2012). HSCs were then fixed in 10% buffered formalin phosphate. Other fixatives (PLP, 4% paraformaldehyde) prevented detection of OS change. Tissue was then labeled for neurons (anti-NeuN), oligodendrocytes (anti-RIP), astrocytes (anti-GFAP), or for microglia (isolectin GS-IB4).

Assay [4] has as its system myelin basic protein (MBP). As to the kind of experiment: Myelin basic protein (MBP) Western blot in hippocampal slice cultures. It is filed as cell-based, rat. The note with it: after SD; anti-CD4 for 24 hours at 7 days in vitro; GW 4869. As to the method: FIGS. 14A-14C. Reduced myelin basic protein (MBP) from SD depends on IFN-γ/T-cell activation and sphingomylinase. […] Thus, confirming involvement of T cells.
FIGS. 15A-15C. Physiological and transient elevation [i.e., phasic (see FIG. 1)] of IFN-γ triggers completely opposite effects. Transient (i.e., 500 U/mL×12 hours; all groups n≥5) exposure of hippocampal slice cultures was nutritive when assessed seven days later.

Assay [5] concerns CA3 area evoked excitability. It counts as cell-based, rat. Conditions: H2O2 exposure. How it is done: as §1

As for Insulin, the “relative SD threshold versus control (control 1.00±0.20)” value in assay [1] (3-day exposure, insulin 400 μg/mL) stood at 22.60±9.60. The “insulin dose needed for protective effect relative to IGF-1” value in assay [1] (protection against SD in slice cultures) was 15 500 fold. Also, in assay [1] (slice cultures), the “dose needed for protective effect against SD” value is 70 µM. Further, in assay [2], the “volume of 0.5 M KCl needed to evoke SD” value fell in the range of 8 to 34 nL.
On to `CC1=CC(=O)c2ccccc2C1=O` [menadione, reference compound], for which the “OS induced by menadione versus control” value in assay [3] was “significant increase in slice OS”.
For `O=C(/C=C/c1ccc(/C=C/C(=O)Nc2ccc(C3=NCCN3)cc2)cc1)Nc1ccc(C2=NCCN2)cc1` [GW 4869, reference compound], the “decline in MBP / demyelination after SD” value in assay [4] is reported as “prevents the drop in MBP after SD”.
Turning to `OO` [hydrogen peroxide, reference compound], the “evoked excitability versus control” value in assay [5] (without or with IGF-1 pretreatment for 3 days) was “increased slice excitability”; in assay [5] (without or with acute IGF-1, 30 minutes after H2O2) it was “significantly increased evoked slice hyperexcitability”; in assay [5] (without or with acute IGF-1, 30 minutes after H2O2, listed as H2O2), “increase in evoked excitability”.

B1: sTNFR1: soluble TNFR1 used for removal of TNF-α signaling (protein, UniProt P19438 30-211, looked up)
extracellular domain: LVPHLGDREKRDSVCPQGKYIHPQNNSICCTKCHKGTYLYNDCPGPGQDTDCRECESGSFTASENHLRHCLSCSKCRKEMGQVEISSCTVDRDTVCGCRKNQYRHYWSENLFQCFNCSLCLNGTVHLSCQEKQNTVCTCHAGFFLRENECVSCSNCKKSLECTKLCLPQIENVKGTEDSGTT
modifications: extracellular domain
notes: soluble TNFR1 used for removal of TNF-α signaling
B1: in assay [1] (after previous SD, soluble TNFR1 200 ng/mL after first day of SD, anti-CD4 0.1 mg/mL at 7 days for 24 hours), the “SD-induced increased susceptibility to SD” value is reported as “abrogated”.

The values above are taken from US10391150B2, “Treatments for migraine and related disorders” (The University of Chicago, priority 2011, dated 2019).
